PMC4981864, “Novel pH-Sensitive Cyclic Peptides” (Scientific Reports, 2016)
Ends that are not written are not given here. Peptide text beside a SMILES is read from it.

Columns and labels:
[1] = type: physicochemical; conditions: pH 8
Description: (§1) Large unilamellar vesicles (LUVs) were prepared by extrusion. POPC, 1-palmitoyl-2-oleoyl-sn-glycero-3-phosphocholine (Avanti Polar Lipids), or a mixture of POPC with 0.5% of 18:1 NBD-PE, 1,2-dioleoyl-sn-glycero-3-phosphoethanolamine-N-7-nitro-2-1,3-benzoxadiazol-4-yl ammonium salt (Avanti Polar Lipids) were dissolved in chloroform, desolvated on a rotary evaporator, and dried under high vacuum for several hours. The phospholipid film was then rehydrated in 10 mM phosphate buffer pH 8.0, vortexed until the lipid bilayer was completely dissolved, and repeatedly (15–21 times) extruded through the membranes with 50 nm pore sizes to obtain LUVs.
pH-dependent partitioning of the peptides into a lipid bilayer of the membrane was investigated by the shift of the position of the fluorescence spectral maximum for the peptides in the presence POPC liposomes induced by a drop of pH from 8 to 2.5 by the addition of HCl. The peptides were incubated overnight with 50-nm POPC liposomes (final concentration of the peptides and POPC in solution was 5 μM and 1 mM, respectively), and pH decrease was achieved by the addition of aliquots of 4, 2, 1 and 0.1 M HCl. pH was measured by micro-electrode probe (Thermo Electron Corporation, Orion Ross Micro pH electrode). Fluorescence spectra were recorded at each pH value. The spectra were analyzed by the decomposition algorithms using on-line PFAST toolkit[47] (Protein Fluorescence and Structural Toolkit: http://pfast.phys.uri.edu/) to establish the position of the emission maximum. Finally, the positions of the fluorescence spectral maxima (λmax) were plotted versus pH, and the Henderson–Hasselbalch equation was used to fit the data (using Origin 8.5 software): […]
where [drawing 3] and [drawing 4] are the beginning and the end of the transition, respectively, and pKa – is the midpoint of the transition.

[2] = Dual quenching assay (acrylamide / 10-DN); type: physicochemical; conditions: 7 μM peptide, 2.1 mM POPC; for percentage of fluorescence quenching, Pep-PC+AC pH3 / percentage of fluorescence quenching, Pep-PC+AC pH8: 235 mM acrylamide; for percentage of fluorescence quenching, Pep-PC+AC pH3 / percentage of fluorescence quenching, Pep-PC+10-DN pH3: pH 3; for percentage of fluorescence quenching, Pep-PC+AC pH8 / percentage of fluorescence quenching, Pep-PC+10-DN pH8: pH 8; for percentage of fluorescence quenching, Pep-PC+10-DN pH3 / percentage of fluorescence quenching, Pep-PC+10-DN pH8: 10% of lipids replaced by 10-DN
From the text: To establish localization of the peptides within a lipid bilayer of membrane, dual quenching assay[28] was employed (Fig. 3 and Table S3). Effective quenching of fluorescence by acrylamide would occur only for tryptophan residues exposed to polar parts of the outer or inner leaflets of the bilayer. At the same time, tryptophan residues located in the middle of a membrane would be effectively quenched by 10-DN. The result of the dual quenching assay allows establishing if tryptophan residues were located in the middle of a membrane or close to the polar headgroups of the bilayer. […] Therefore, we also performed Förster resonance energy transfer (FRET) assay[29] (Fig. 4). First, symmetrically-labelled by NBD dye, POPC liposomes were prepared. Then, membrane-impermeable dithionite was used to chemically modify exposed NBD, which led to the quenching of NBD fluorescence. Thus, NBD dyes located at the outer leaflet of the bilayer were deactivated and excess of dithionite was removed by gel filtration. As a result, asymmetrically-labelled liposomes with active NBD at the inner leaflet were obtained. FRET was monitored from tryptophan residues of the peptides to NBD. Energy transfer might occur only when both fluorophores are in proximity to each other (within 5–15 Å). Thus, when tryptophan residues located at the outer leaflet of the bilayer no significant energy transfer to NBD at the inner leaflet would occur (the distance is about 50–60 Å). […] All other peptides were located at the outer leaflet of the bilayer at pH 8. Drop of pH promoted partitioning of all cyclic peptides into bilayer, which highest FRET for the c[E4W5C] at pH 3.
POPC liposomes without and with 10% of the lipids replaced by 10-doxylnonadecane (10-DN) (Avanti Polar Lipids) were prepared in 10 mM citrate-phosphate buffer pH 8.0. Peptides and POPC liposomes were mixed to generate final concentrations of 7 μM peptide and 2.1 mM POPC without and with 10-DN. […] Quencher, acrylamide (Sigma-Aldrich), was added to the samples of POPC liposomes containing no 10-DN, to have final concentration of 235 mM acrylamide. Concentration of peptides in all samples was kept constant. To observe quenching of tryptophan fluorescence by 10-DN or acrylamide, the tryptophan fluorescence was recorded as described above. The appropriate POPC blanks were measured and subtracted from the measured spectra before analysis. The percentage of quenching was calculated.

[3] = Steady-state tryptophan fluorescence and CD with and without POPC liposomes; type: physicochemical; conditions: for maximum position of the fluorescence spectrum λmax, Pep, pH8: peptide in phosphate buffer pH 8, no liposomes; for maximum position of the fluorescence spectrum λmax, Pep, pH8 / maximum position of the fluorescence spectrum λmax, Pep-PC, pH3 / maximum position of the fluorescence spectrum λmax, Pep-PC, pH8: 5 μM peptide, excitation 280 nm, 25 °C; for maximum position of the fluorescence spectrum λmax, Pep-PC, pH3 / S, normalized area under the spectra, Pep-PC, pH3: with POPC liposomes pH 3; for maximum position of the fluorescence spectrum λmax, Pep-PC, pH3 / maximum position of the fluorescence spectrum λmax, Pep-PC, pH8: 1.25 mM lipids; for S, normalized area under the spectra, Pep-PC, pH3 / S, normalized area under the spectra, Pep-PC, pH8: normalized on area for peptide at pH 8 in absence of POPC; for maximum position of the fluorescence spectrum λmax, Pep-PC, pH8 / S, normalized area under the spectra, Pep-PC, pH8: with POPC liposomes pH 8
Description: as §1
Freshly prepared peptides and POPC vesicles were mixed to have 5 μM of a peptide and 1.25 mM of lipids in the final solution. Steady-state fluorescence measurements were carried out on a PC1 spectrofluorometer (ISS, Inc.) under temperature control at 25 °C. Tryptophan fluorescence was excited at 280 nm (there is no Phe or Tyr in the peptides) and recorded with the excitation and emission slits set at 1 nm. The polarizers in the excitation and emission paths were set at the “magic” angle (54.7° from the vertical orientation) and vertically (0°), respectively. Steady state CD measurements were carried out in MOS 450 spectropolarimeter (Bio-Logic, Inc.) with the same concentrations of peptide and lipids used in fluorescence measurements.

HeLa cells = conditions: concentrations used in this study, treatment of 2-4 hours; cited from earlier work
Description: Symmetric, c[(WE)4WC], and asymmetric, c[E4W5C], cyclic peptides were evaluated for their ability to move polar cargo across the membrane. The experiments on live cells were performed at physiologically relevant pHs, such as pH 7.4 (extracellular pH of normal cells) and pH 6.0 (extracellular pH in the vicinity of cancer cells[12]). As a polar cargo, we used amanitin, which is a cell-impermeable cyclic p ...

Molecule | apparent pK (pKa) of peptide's partitioning into the bilayer [1] | percentage of fluorescence quenching, Pep-PC+AC pH3 [2] [%] | percentage of fluorescence quenching, Pep-PC+AC pH8 [2] [%] | percentage of fluorescence quenching, Pep-PC+10-DN pH3 [2] [%] | percentage of fluorescence quenching, Pep-PC+10-DN pH8 [2] [%] | maximum position of the fluorescence spectrum λmax, Pep, pH8 [3] [nm] | maximum position of the fluorescence spectrum λmax, Pep-PC, pH3 [3] [nm] | S, normalized area under the spectra, Pep-PC, pH3 [3] | maximum position of the fluorescence spectrum λmax, Pep-PC, pH8 [3] [nm] | S, normalized area under the spectra, Pep-PC, pH8 [3] | pH-dependent interaction with / partitioning into the lipid bilayer of membrane ([3]; fluorescence and CD, POPC liposomes, pH 8 and pH 3) | cell death by amanitin alone (HeLa cells)
CC(C)C[C@@H]1NC(=O)[C@H](CS)NC(=O)[C@H](Cc2c[nH]c3ccccc23)NC(=O)[C@H](CCC(=O)O)NC(=O)[C@H](CC(C)C)NC(=O)[C@H](CCC(=O)O)NC(=O)[C@H](CC(C)C)NC(=O)[C@H](CCC(=O)O)NC(=O)[C@H](CC(C)C)NC(=O)[C@H](CCC(=O)O)NC1=O [c[(LE)4WC]] (cyclo(CLELELELEW)) | 4.7 | 59 | 96 | 17 | 0 | 348.7±0.3 | 339.6±1.2 | 1.1±0.1 | 348.2±0.6 | 1.1±0.0 | – | –
O=C(O)CC[C@@H]1NC(=O)[C@H](Cc2c[nH]c3ccccc23)NC(=O)[C@H](CS)NC(=O)[C@H](Cc2c[nH]c3ccccc23)NC(=O)[C@H](CCC(=O)O)NC(=O)[C@H](Cc2c[nH]c3ccccc23)NC(=O)[C@H](CCC(=O)O)NC(=O)[C@H](Cc2c[nH]c3ccccc23)NC1=O [c[(WE)3WC]] (cyclo(CWEWEWEW)) | 6.1 | 63 | 83 | 47 | 6 | 351.0±0.2 | 341.7±0.2 | 1.7±0.3 | 349.1±0.7 | 0.9±0.1 | – | –
O=C(O)CC[C@@H]1NC(=O)[C@H](Cc2c[nH]c3ccccc23)NC(=O)[C@H](CS)NC(=O)[C@H](Cc2c[nH]c3ccccc23)NC(=O)[C@H](CCC(=O)O)NC(=O)[C@H](Cc2c[nH]c3ccccc23)NC(=O)[C@H](CCC(=O)O)NC(=O)[C@H](Cc2c[nH]c3ccccc23)NC(=O)[C@H](CCC(=O)O)NC(=O)[C@H](Cc2c[nH]c3ccccc23)NC1=O [c[(WE)4WC]] (cyclo(CWEWEWEWEW)) | 6.4 | 50 | 82 | 40 | 11 | 350.5±0.2 | 341.1±0.9 | 1.6±0.2 | 347.5±1.2 | 1.1±0.1 | – | –
O=C(O)CC[C@@H]1NC(=O)[C@H](Cc2c[nH]c3ccccc23)NC(=O)[C@H](CS)NC(=O)[C@H](Cc2c[nH]c3ccccc23)NC(=O)[C@H](CCC(=O)O)NC(=O)[C@H](Cc2c[nH]c3ccccc23)NC(=O)[C@H](CCC(=O)O)NC(=O)[C@H](Cc2c[nH]c3ccccc23)NC(=O)[C@H](CCC(=O)O)NC(=O)[C@H](Cc2c[nH]c3ccccc23)NC(=O)[C@H](CCC(=O)O)NC(=O)[C@H](Cc2c[nH]c3ccccc23)NC1=O [c[(WE)5WC]] (cyclo(CWEWEWEWEWEW)) | 6.3 | 68 | 78 | 40 | 13 | 350.3±0.2 | 341.2±0.4 | 2.1±0.3 | 346.7±1.2 | 1.5±0.3 | – | –
N=C(N)NCCC[C@@H]1NC(=O)[C@H](CS)NC(=O)[C@H](Cc2c[nH]c3ccccc23)NC(=O)[C@H](Cc2c[nH]c3ccccc23)NC(=O)[C@H](Cc2c[nH]c3ccccc23)NC(=O)[C@H](Cc2c[nH]c3ccccc23)NC(=O)[C@H](Cc2c[nH]c3ccccc23)NC(=O)[C@H](CCCNC(=N)N)NC(=O)[C@H](CCCNC(=N)N)NC(=O)[C@H](CCCNC(=N)N)NC1=O [c[R4W5C]] | – | – | – | – | – | – | – | – | – | – | does not exhibit pH-dependent changes | –
CWEWEWEWEW [l(CW(EW)4)] | 5.7 | – | – | – | – | – | – | – | – | – | – | –
alpha-amanitin | – | – | – | – | – | – | – | – | – | – | – | does not induce cell death
